Assay results taken from patent US20230136297A1, “Methods Of Treating Fabry Disease In Patients Having A Mutation In The GLA Gene” (Amicus Therapeutics, Inc., priority 2020, published 2023).
Where a chain is given by its changes, count along the chain named.

What was measured:
[1] = system: novel α-Gal A mutations A29D, R38S, N53Y, Y88C, V124G, I133F, A143V, Y152N, F159C, A160D, D165N, F169I, L180V, D182G, R196T, W209R, A257T, P259S, G271A, S276T …; test: HEK assay, amenability of the novel mutations taken together; format: cell-based, human; conditions: all 31 novel mutations; criteria: relative increase ≥1.20-fold and absolute increase ≥3.0% wild-type at 10 μM migalastat
Source text: (§1) Such mutations or variants are also referred to herein as “HEK assay amenable” mutations or variants.
(§2) The α-Gal A activity is expressed as the nmoles of free 4-MU released per milligram of protein per hour (nmol/mg/hr).

α-Gal A mutant form A29D = test: α-Gal A activity in lysates of transfected HEK-293 cells ± migalastat (HEK assay); format: cell-based, human
Source text: as §1, §2

α-Gal A mutant form N53Y = molecular target: T1, α-Gal A mutant form N53Y (Homo sapiens, UniProt P06280, N53Y); test: as above; format: cell-based
T1 construct: expressed in transfected cells; host or cells: HEK-293
T1 sequence (P06280 32-429 N53Y): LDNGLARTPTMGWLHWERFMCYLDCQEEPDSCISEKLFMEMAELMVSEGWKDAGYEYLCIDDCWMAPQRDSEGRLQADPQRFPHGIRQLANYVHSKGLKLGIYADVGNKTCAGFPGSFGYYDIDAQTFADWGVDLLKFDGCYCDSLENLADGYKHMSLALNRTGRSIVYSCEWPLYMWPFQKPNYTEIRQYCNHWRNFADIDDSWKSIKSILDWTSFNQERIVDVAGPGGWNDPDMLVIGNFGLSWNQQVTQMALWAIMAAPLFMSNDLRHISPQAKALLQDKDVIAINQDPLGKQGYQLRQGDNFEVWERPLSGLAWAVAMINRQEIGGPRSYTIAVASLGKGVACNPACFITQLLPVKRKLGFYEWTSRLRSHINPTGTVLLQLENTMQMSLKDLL
Source text: as §1, §2

[2] = molecular target: T2, α-Gal A mutant form I303T (Homo sapiens, UniProt P06280, I303T); test: as above; format: cell-based
T2 construct: expressed in transfected cells; host or cells: HEK-293
T2 sequence (P06280 32-429 I303T): T1 sequence (P06280 32-429 N53Y) with Y22N, I272T
Source text: as §1, §2

[3] = molecular target: T3, α-Gal A mutant form A291S (Homo sapiens, UniProt P06280, A291S); test: as above; format: cell-based
T3 construct: expressed in transfected cells; host or cells: HEK-293
T3 sequence (P06280 32-429 A291S): T1 sequence (P06280 32-429 N53Y) with Y22N, A260S
Source text: as §1, §2

[4] = molecular target: T4, α-Gal A mutant form M290V (Homo sapiens, UniProt P06280, M290V); test: as above; format: cell-based
T4 construct: expressed in transfected cells; host or cells: HEK-293
T4 sequence (P06280 32-429 M290V): T1 sequence (P06280 32-429 N53Y) with Y22N, M259V
Source text: as §1, §2

[5] = molecular target: T5, α-Gal A mutant form L310V (Homo sapiens, UniProt P06280, L310V); test: as above; format: cell-based
T5 construct: expressed in transfected cells; host or cells: HEK-293
T5 sequence (P06280 32-429 L310V): T1 sequence (P06280 32-429 N53Y) with Y22N, L279V
Source text: as §1, §2

[6] = 10 μM migalastat minus baseline
[7] = HEK-293 lysates, 10 μM migalastat 5 days, mean ± SEM

SMILES: OC[C@H]1NC[C@H](O)[C@@H](O)[C@H]1O [migalastat, (2R,3S,4R,5S)-2-(hydroxymethyl) piperdine-3,4,5-triol]
- in vitro response to incubation with migalastat [1]: met amenability criteria
- Absolute increase (% WT) (α-Gal A mutant form A29D; [6]): 5.1 % WT
- Relative increase (α-Gal A mutant form A29D; 10 μM migalastat ÷ baseline): 1.35
- 10 μM migalastat α-Gal A activity (α-Gal A mutant form A29D; [7]): 6877 ± 474 nmol/mg/h
- 10 μM migalastat α-Gal A activity (% WT) (α-Gal A mutant form A29D; [7]): 20.3 ± 1.1 % WT
- Absolute increase (% WT) (α-Gal A mutant form N53Y; [6]): 34.5 % WT
- Relative increase (α-Gal A mutant form N53Y; 10 μM migalastat ÷ baseline): 2.04
- 10 μM migalastat α-Gal A activity (α-Gal A mutant form N53Y; [7]): 22871 ± 2192 nmol/mg/h
- 10 μM migalastat α-Gal A activity (% WT) (α-Gal A mutant form N53Y; [7]): 68.5 ± 2.6 % WT
- Absolute increase (% WT) ([2]; 10 μM migalastat minus baseline, baseline BLD): 7.3 % WT
- 10 μM migalastat α-Gal A activity (% WT) ([2]; HEK-293 lysates, 10 μM migalastat 5 days, mean ± SEM, baseline BLD): 7.3 ± 1.4 % WT
- 10 μM migalastat α-Gal A activity ([2]; HEK-293 lysates, 10 μM migalastat 5 days, mean ± SEM, baseline BLD (<142 nmol/mg/hr)): 2809 ± 520 nmol/mg/h
- Absolute increase (% WT) [3, 6]: 26.8 % WT
- Relative increase ([3]; 10 μM migalastat ÷ baseline): 1.55
- 10 μM migalastat α-Gal A activity [3, 7]: 20029 ± 1654 nmol/mg/h
- 10 μM migalastat α-Gal A activity (% WT) [3, 7]: 74.5 ± 4^ % WT
- Absolute increase (% WT) [4, 6]: 61.5 % WT
- Relative increase ([4]; 10 μM migalastat ÷ baseline): 1.94
- 10 μM migalastat α-Gal A activity [4, 7]: 45804 ± 2927 nmol/mg/h
- 10 μM migalastat α-Gal A activity (% WT) [4, 7]: 128.1 ± 8.2 % WT
- Absolute increase (% WT) [5, 6]: 22.8 % WT
- Relative increase ([5]; 10 μM migalastat ÷ baseline): 1.37
- 10 μM migalastat α-Gal A activity [5, 7]: 31936 ± 2527 nmol/mg/h
- 10 μM migalastat α-Gal A activity (% WT) [5, 7]: 78.4 ± 4.8 % WT
